Data from BindingDB's records for patent US20130102619 (2013).

These molecules were tested against T1, Orexin receptor type 2 (Homo sapiens, UniProt O43614) (assay: FLIPR Ca2+ Flux Assay). Conditions: 37 °C.
T1 sequence (O43614 whole entry): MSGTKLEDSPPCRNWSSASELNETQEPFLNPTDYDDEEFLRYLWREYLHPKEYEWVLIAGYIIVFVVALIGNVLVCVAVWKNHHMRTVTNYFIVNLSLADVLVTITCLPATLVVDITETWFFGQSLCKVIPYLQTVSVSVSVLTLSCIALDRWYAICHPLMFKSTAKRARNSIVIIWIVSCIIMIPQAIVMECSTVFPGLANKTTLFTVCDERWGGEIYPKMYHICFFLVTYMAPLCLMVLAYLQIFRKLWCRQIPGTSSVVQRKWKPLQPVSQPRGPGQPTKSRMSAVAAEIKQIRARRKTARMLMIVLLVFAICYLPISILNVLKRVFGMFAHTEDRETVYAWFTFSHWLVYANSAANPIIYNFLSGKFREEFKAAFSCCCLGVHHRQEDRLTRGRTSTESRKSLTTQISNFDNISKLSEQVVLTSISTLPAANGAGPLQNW
Description: Chinese hamster ovary (CHO) cells expressing the rat orexin-1 receptor or the human orexin-2 receptor, are grown in Iscove's modified DMEM containing 2 mM L-glutamine, […], 1% hypoxanthine-thymidine supplement, 100 U/ml penicillin, 100 ug/ml streptomycin and 10% heat-inactivated fetal calf serum (FCS). The cells are seeded at 20,000 cells/well into Becton-Dickinson black 384-well clear bottom sterile plates coated with poly-D-lysine. All reagents were from GIBCO-Invitrogen Corp. The seeded plates are incubated overnight at 37° C. and 5% CO2. Ala-6,12 human orexin-A as the agonist is prepared as a 1 mM stock solution in 1% bovine serum albumin (BSA) and diluted in assay buffer (HBSS containing 20 mM HEPES, 0.1% BSA and 2.5 mM probenecid, pH7.4) for use in the assay at a final concentration of 70 pM. Test compounds are prepared as 10 mM stock solution in DMSO, then diluted in 384-well plates, first in DMSO, then assay buffer. On the day of the assay, cells are washed 3 times with 100 ul assay buffer and then incubated for 60 min (37° C., 5% CO2) in 60 ul assay buffer containing 1 uM Fluo-4AM ester, 0.02% pluronic acid, and 1% BSA. The dye loading solution is then aspirated and cells are washed 3 times with 100 ul assay buffer. 30 ul of that same buffer is left in each well. Within the Fluorescent Imaging Plate Reader (FLIPR, Molecular Devices), test compounds are added to the plate in a volume of 25 ul, incubated for 5 min and finally 25 ul of agonist is added. Fluorescence is measured for each well at 1 second intervals for 5 minutes and the height of each fluorescence peak is compared to the height of the fluorescence peak induced by 70 pM Ala-6,12 orexin-A with buffer in place of antagonist.

| SMILES | IC50 |
| --- | --- |
| C[C@@H]1CC[C@@H](Oc2cc(C#N)ccn2)CN1C(=O)c1ccccc1-n1nccn1 [US20130102619, 1] | 12 nM |
| C[C@@H]1CC[C@@H](Oc2cc(C#N)ccn2)CN1C(=O)c1ccccc1-c1ncccn1 [US20130102619, 2] | 28 nM |
| Cc1nc(-c2ccccc2C(=O)N2C[C@H](Oc3cc(C#N)ccn3)CC[C@H]2C)no1 [US20130102619, 3] | 18 nM |
